Assays:
Assay in all cases: relative viability (nuclei count vs DMSO), 5 days (fraction); higher = more cells survive
Avagacestat + Luminespib = compound: NC(=O)[C@@H](CCC(F)(F)F)N(Cc1ccc(-c2ncon2)cc1F)S(=O)(=O)c1ccc(Cl)cc1 [Avagacestat] + CCNC(=O)c1noc(-c2cc(C(C)C)c(O)cc2O)c1-c1ccc(CN2CCOCC2)cc1 [Luminespib] (partner 0.01 µM)
How it was run: (§1)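 Each reported value is a median over duplicate plates. It expresses relative viability: treated-well nuclei count divided by vehicle-well nuclei count. Lung cancer cell lines in 1536-well plates were dosed by pin tool a day after seeding, alone with one drug or with a fixed anchor-drug dose plus five library-drug doses (not always all listed) in √10 steps, and nuclei were counted after 5 days.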

Avagacestat + Foretinib = compound: NC(=O)[C@@H](CCC(F)(F)F)N(Cc1ccc(-c2ncon2)cc1F)S(=O)(=O)c1ccc(Cl)cc1 [Avagacestat] + COc1cc2c(Oc3ccc(NC(=O)C4(C(=O)Nc5ccc(F)cc5)CC4)cc3F)ccnc2cc1OCCCN1CCOCC1 [Foretinib] (partner 0.25 µM)
How it was run: as §1

Avagacestat + Dasatinib = compound: NC(=O)[C@@H](CCC(F)(F)F)N(Cc1ccc(-c2ncon2)cc1F)S(=O)(=O)c1ccc(Cl)cc1 [Avagacestat] + Cc1nc(Nc2ncc(C(=O)Nc3c(C)cccc3Cl)s2)cc(N2CCN(CCO)CC2)n1 [Dasatinib] (partner 0.075 µM)
How it was run: as §1

Avagacestat + Decitabine = compound: NC(=O)[C@@H](CCC(F)(F)F)N(Cc1ccc(-c2ncon2)cc1F)S(=O)(=O)c1ccc(Cl)cc1 [Avagacestat] + Nc1ncn([C@H]2C[C@H](O)[C@@H](CO)O2)c(=O)n1 [Decitabine] (partner 2 µM)
How it was run: as §1

| Cell Line | relative viability (Avagacestat + Luminespib; first compound 0.08 µM) | relative viability (Avagacestat + Luminespib; first compound 0.253 µM) | relative viability (Avagacestat + Luminespib; first compound 0.8 µM) | relative viability (Avagacestat + Luminespib; first compound 2.53 µM) | relative viability (Avagacestat + Luminespib; first compound 8 µM) | relative viability (Avagacestat + Foretinib; first compound 0.08 µM) | relative viability (Avagacestat + Foretinib; first compound 0.253 µM) | relative viability (Avagacestat + Foretinib; first compound 0.8 µM) | relative viability (Avagacestat + Foretinib; first compound 2.53 µM) | relative viability (Avagacestat + Foretinib; first compound 8 µM) | relative viability (Avagacestat + Dasatinib; first compound 0.08 µM) | relative viability (Avagacestat + Dasatinib; first compound 0.253 µM) | relative viability (Avagacestat + Dasatinib; first compound 0.8 µM) | relative viability (Avagacestat + Dasatinib; first compound 2.53 µM) | relative viability (Avagacestat + Dasatinib; first compound 8 µM) | relative viability (Avagacestat + Decitabine; first compound 0.08 µM) | relative viability (Avagacestat + Decitabine; first compound 0.253 µM) | relative viability (Avagacestat + Decitabine; first compound 0.8 µM) | relative viability (Avagacestat + Decitabine; first compound 2.53 µM) | relative viability (Avagacestat + Decitabine; first compound 8 µM) |
| --- | --- | --- | --- | --- | --- | --- | --- | --- | --- | --- | --- | --- | --- | --- | --- | --- | --- | --- | --- | --- |
| 201T | 1.11 | 1.05 | 1 | 0.964 | 1.04 | 1.18 | 1.45 | 1.06 | 0.944 | 1.1 | 0.668 | 0.599 | 0.565 | 0.586 | 0.608 | 0.861 | 0.885 | 0.888 | 0.801 | 0.767 |
| A549 |  |  |  |  |  | 1.01 | 1.15 | 1.01 | 1.01 | 0.878 |  |  |  |  |  | 0.331 | 0.254 | 0.296 | 0.31 | 0.259 |
| A-427 | 0.91 | 1.13 | 1.05 | 0.81 | 0.821 | 1.37 | 1.18 | 1.12 | 1.11 | 1.08 | 0.785 | 0.859 | 0.755 | 0.935 | 0.649 | 0.549 | 0.583 | 0.565 | 0.619 | 0.601 |
| ABC-1 | 0.387 | 0.583 | 0.801 | 0.359 | 0.555 | 1.16 | 1.06 | 1.15 | 1 | 1.06 | 0.648 | 0.644 | 0.644 | 0.725 | 0.59 | 1.12 | 1.26 | 1.07 | 1.17 | 1.24 |
| BEN | 0.396 | 0.308 | 0.675 | 0.326 | 0.238 | 0.692 | 0.694 | 0.725 | 0.74 | 0.62 | 0.382 | 0.325 | 0.389 | 0.37 | 0.326 | 0.734 | 0.712 | 0.824 | 0.732 | 0.685 |
| CAL-12T | 0.351 | 0.921 | 0.427 | 0.364 | 0.276 | 1.35 | 1.25 | 1.24 | 1.02 | 1.16 | 0.376 | 0.414 | 0.418 | 0.386 | 0.253 |  |  |  |  |  |
| COR-L23 | 1.08 | 0.803 | 1.08 | 0.642 | 0.512 | 1.12 | 1.28 | 1.1 | 0.901 | 0.952 | 0.507 | 0.471 | 0.781 | 0.457 | 0.359 | 0.519 | 0.406 | 0.434 | 0.399 | 0.39 |
| COR-L 105 | 1.02 | 1.01 | 0.798 | 0.542 | 0.754 | 1.17 | 1.25 | 1.36 | 0.927 | 0.698 | 0.281 | 0.307 | 0.345 | 0.247 | 0.279 | 0.665 | 0.734 | 0.642 | 0.595 | 0.558 |
| Calu-6 |  |  |  |  |  | 1.12 | 0.949 | 0.979 | 0.905 | 0.845 |  |  |  |  |  |  |  |  |  |  |
| ChaGo-K-1 | 0.551 | 0.718 | 0.747 | 0.551 | 0.595 | 0.935 | 1 | 0.856 | 0.825 | 0.786 | 0.616 | 0.641 | 0.628 | 0.551 | 0.608 | 0.558 | 0.526 | 0.492 | 0.516 | 0.49 |
| EBC-1 |  |  |  |  |  | 0.114 | 0.113 | 0.123 | 0.11 | 0.107 |  |  |  |  |  |  |  |  |  |  |
| EKVX | 0.798 | 0.973 | 0.859 | 0.809 | 0.751 | 0.859 | 0.742 | 1.08 | 0.798 | 0.795 | 0.621 | 0.491 | 0.512 | 0.473 | 0.382 | 0.391 | 0.299 | 0.378 | 0.354 | 0.36 |
| EMC-BAC-2 | 1.33 | 1.4 | 1.29 | 1.12 | 1.1 | 1.06 | 1.09 | 1.06 | 0.904 | 0.968 | 0.342 | 0.298 | 0.301 | 0.292 | 0.308 | 1.1 | 1.06 | 1.09 | 1.07 | 1.07 |
| EPLC-272H | 0.21 | 0.267 | 0.139 | 0.153 | 0.304 | 0.72 | 0.662 | 0.825 | 0.602 | 0.661 | 0.328 | 0.339 | 0.289 | 0.348 | 0.266 | 0.421 | 0.435 | 0.4 | 0.322 | 0.352 |
| H3255 | 1.02 | 0.951 | 0.941 | 1.05 | 0.847 | 0.857 | 0.913 | 0.934 | 0.891 | 0.949 | 0.362 | 0.347 | 0.57 | 0.379 | 0.313 | 0.619 | 0.731 | 0.678 | 0.591 | 0.542 |
| HARA | 0.783 | 0.201 | 0.614 | 0.536 | 0.87 | 1.1 | 1.39 | 0.863 | 0.867 | 0.77 | 0.234 | 0.254 | 0.228 | 0.262 | 0.239 | 0.4 | 0.377 | 0.621 | 0.435 | 0.448 |
| HCC-15 | 0.442 | 0.338 | 0.309 | 0.325 | 0.284 | 1.14 | 1.16 | 1.15 | 0.958 | 1.01 | 0.685 | 0.642 | 0.652 | 0.608 | 0.539 | 0.791 | 0.745 | 0.705 | 0.575 | 0.523 |
| HCC-44 | 1.21 | 1.36 | 1.14 | 0.885 | 1.25 |  |  |  |  |  |  |  |  |  |  | 0.991 | 0.944 | 0.985 | 0.968 | 0.986 |
| HCC-78 |  |  |  |  |  | 0.588 | 0.523 | 0.542 | 0.492 | 0.54 | 0.452 | 0.273 | 0.343 | 0.327 | 0.331 | 0.675 | 0.726 | 0.75 | 0.683 | 0.669 |

Source: the supplement of paper PMC10307832
